Reference: patent US20140128352A1, “COMPOUNDS AND METHODS FOR MODULATING MITOCHONDRIAL METABOLISM AND REACTIVE OXYGEN SPECIES PRODUCTION” (Buck Institute for Research on Aging, priority 2012, published 2014)
Entries after “also recorded” stand apart in the source; their conditions may differ. Read-outs that look alike come from different tables or passages of the source.

Columns and labels:
[1] = biological target: T1, glycerol-3-phosphate dehydrogenase (GPDH) (Rattus norvegicus, UniProt P35571); test: High-throughput screen: ROS production from glycerol-3-phosphate dehydrogenase (GPDH); type: biochemical; parameters: inhibition: dose or concentration left out as unconfirmed; conditions: for inhibition / GPDH: percent change in ROS from DMSO controls
T1 construct: The activity of GPDH in intact mitochondria (0.3 mg/mL) was measured; from tissue; host or cells: rat skeletal muscle mitochondria (Wistar, Harlan Laboratories)
T1 sequence (P35571 43-727): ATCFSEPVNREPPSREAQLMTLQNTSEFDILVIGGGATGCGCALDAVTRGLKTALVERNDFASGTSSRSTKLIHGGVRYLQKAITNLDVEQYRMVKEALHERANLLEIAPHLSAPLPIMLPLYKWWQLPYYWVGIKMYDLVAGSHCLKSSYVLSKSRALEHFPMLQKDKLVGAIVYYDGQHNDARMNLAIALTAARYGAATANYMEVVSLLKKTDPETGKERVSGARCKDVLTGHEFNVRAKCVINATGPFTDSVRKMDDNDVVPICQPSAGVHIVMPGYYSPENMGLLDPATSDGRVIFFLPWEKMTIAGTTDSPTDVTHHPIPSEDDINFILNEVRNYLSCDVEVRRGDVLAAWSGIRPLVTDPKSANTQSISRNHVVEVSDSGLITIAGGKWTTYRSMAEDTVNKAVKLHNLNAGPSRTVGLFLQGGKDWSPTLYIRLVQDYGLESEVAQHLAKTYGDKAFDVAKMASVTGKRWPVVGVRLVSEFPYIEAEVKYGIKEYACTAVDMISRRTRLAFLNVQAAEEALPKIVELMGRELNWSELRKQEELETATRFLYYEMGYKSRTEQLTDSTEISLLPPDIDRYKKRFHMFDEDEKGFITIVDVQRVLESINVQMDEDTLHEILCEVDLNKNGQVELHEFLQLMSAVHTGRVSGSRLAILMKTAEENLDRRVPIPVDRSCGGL

[2] = test system: ubiquinone binding site of complex I (IQ); test: High-throughput screen: ROS production from ubiquinone binding site of complex I (IQ), isolated skeletal muscle mitochondria; type: biochemical, rat; conditions: for IQ: percent change in ROS from DMSO controls; for % Reduction in ROS production (IQ): Table 2, 5 mM succinate, compounds 2.5 μM, percent change from DMSO, positive control −100%
Method: (§1) Skeletal muscle mitochondria were isolated from 5-8 week old female Wistar rats (Harlan Laboratories). Minced muscle was homogenized in buffer containing bacterial protease Type VIII prior to differential centrifugation to separate mitochondria from other tissue components. Unless otherwise stated, freshly isolated muscle mitochondria were assayed in buffer containing 120 mM KCl, 5 mM HEPES, 1 mM EGTA, 0.3% (w/v) bovine serum albumin. Where indicated, CaCl2 was added to yield a final free concentration of 250 nM calcium at pH 7.0 at 37° C.
(§2) Compounds (10 mM in DMSO) were randomly selected from a library of 24,000 compounds obtained from ChemBridge and curated by the lab of Robert Hughes at the Buck Institute. Master screening plates were prepared using a Biomek FX liquid handling workstation (Beckman) to transfer 1 μL of each compound into individual wells on 96-well storage plates (80 compounds per plate). Master plates were sealed with foil and stored at −80° C. Just prior to use, plates were brought to room temperature and diluted 300-fold with standard buffer (13.3X=33.3 μM). To monitor the performance of each assay throughout screening and to provide intra-plate normalization reference points, DMSO negative controls and known mitochondrial inhibitor positive controls were included on each Master compound plate.
(§3) Total amounts of superoxide and H2O2 production were determined fluorometrically as H2O2, without distinguishing between them, in the presence of exogenous superoxide dismutase (25 units/mL final), horseradish peroxidase (1 unit/mL final), and Amplex UltraRed (25 μM final) as described (Affourtit, C. et al. (2012) Measurement of proton leak and electron leak in isolated mitochondria. Methods Mol. Biol. 810: 165-82). Just prior to use, a bulk 3.3X solution was made in standard buffer and distributed into a 2 mL deep well 96-well transfer plate.
To assess the effects of a compound on ROS production from the ubiquinone binding site of complex I (IQ), Start Solution containing 5 mM succinate was distributed into standard 96-well transfer plates. A Biomek FX workstation was programmed to dispense solutions into black 96-well assay plates. Solutions were dispensed to all assay plates in the following order: ROS Detection solution described in Example 3, Mitochondria solution described in Example 1 to a final concentration of 0.1 mg/ml, and Compound dilutions described in Example 2. Duplicate assay plates were made and each was initiated by the addition of 3.3X Start solution containing 5 mM succinate. Plates were incubated in the dark at room temperature for 30-40 minutes before acquiring endpoint fluorescence using a Victor 3V plate reader (Perkin Elmer) equipped with 550/590 nm excitation/emission filters.
The fluorescence values in each well were scaled as the percent change from the intra-plate DMSO controls with the appropriate inhibitor positive controls defined as −100%. Following initial scaling, intra-plate normalized values were subjected to Tukey's two-way median polish to remove row and column dependent positional effects (Malo et al, 2006).

site IQ = test: Retest of IQ ROS production (expanded microplate panel / cuvette); type: biochemical, rat; conditions: retest; subsaturating (0.5 mM) succinate
Method: Compounds identified as site-selective hits as well as structural analogs were re-sourced from ChemBridge and dissolved in DMSO as 80 mM stocks. Master Titration Plates were prepared manually by serially diluting 80 mM compound stocks between 0.08 and 80 mM on 96-well microplates. Four compounds were titrated in duplicate on each plate. Additional DMSO controls were interspersed across these plates to serve as local normalization controls during analysis since two-way median polishing was not appropriate. Just prior to use, compounds were diluted 100-fold with standard buffer (10X). The same known inhibitor positive controls were included on each plate as during high-throughput screening.
The five core ROS assays and single ΔΨm assay were carried out as in the initial high-throughput screen. In addition, several assays were included to help validate the specificity of the compounds for a given site of production. All compounds were titrated against separate assays targeting IQ ROS and IIIQo ROS using subsaturating (0.5 mM final) succinate. […] Specifically, ΔΨm was monitored separately with 5 mM succinate (in the presence of 4 μM rotenone) in addition to glutamate and malate as before. The use of different substrates was designed to reveal compounds that disrupt mitochondrial function in a substrate specific manner.
Most frequently, these changes involved the use of different substrates to supply electrons from an alternative entry point in the chain. If a site of ROS production is being targeted selectively by a compound, then in many cases the supply of electrons should not influence the effectiveness of this compound at suppressing ROS production. […] Alternative conditions are listed below: • 1) IQ ROS: 5 mM succinate with 1 mM glutamate • 2) IF ROS: 5 mM malate only as substrate (in the presence of 4 μM rotenone) • 3) IIIQo ROS: 5 mM succinate (in the presence of 3 mM malonate, 4 uM rotenone, and 2.5 μM antimycin A) • 4) IIIQo ROS: 25 mM glycerol phosphate (in the presence of 1 mM malonate, 4 μM rotenone, and 2.5 μM antimycin A) • 5) SDH: 0.5 mM succinate (in the presence of 4 uM rotenone, 2.5 uM antimycin A, and 2 μM myxothiazol) • 6) GPDH: Vary the concentration of glycerol phosphate in the presence or absence of 250 nM free calcium to allosterically activate GPDH (all in the presence of 4 μM rotenone, 2.5 uM antimycin A, 1 mM malonate, and 2 μM myxothiazol) • 7) ΔΨm: Vary the concentration of glycerol phosphate in the presence or absence of 250 nM free calcium to allosterically activate GPDH and in the presence or absence of 80 ng/mL nigericin (all in the presence of 4 μM rotenone)
The fluorescence values in each well were scaled in relation to the intra-plate DMSO and known inhibitor controls as in the high-throughput screen except that median values for local interspersed DMSO wells (3-6 wells) were used rather than just the 8 DMSO wells in columns 1 and 12. This normalization was applied in place of the two-way median polish used during high-throughput screening to minimize row and column effects. […] At this stage, strong candidates were not necessarily excluded from further testing if subtle off-target effects were observed (e.g. loss of specificity or signs of general inhibition at the highest concentrations). Rather, these candidates were often pursued for more detailed mechanistic studies with the expectation that subsequent structure activity analysis would provide insight into which structurally related compounds would provide the optimal specificity for a given site of production.
Candidate compounds that remained site-selective following robotics assisted retesting were subsequently tested for effects on ROS production and ΔΨm with a Varian Cary Eclipse fluorimeter (excitation 550 nm, emission at 590 nm). This experimental format allows kinetic measurements of ROS production and ΔΨm with more accurate temperature control, sample stirring, and background correction. […]

[3] = biological target: T2, flavin binding site of complex I (IF) (Rattus norvegicus, UniProt Q5XIH3); test: High-throughput screen: ROS production from flavin binding site of complex I (IF); type: biochemical
T2 construct: freshly isolated muscle mitochondria were assayed; from tissue; host or cells: rat skeletal muscle mitochondria (Wistar, Harlan Laboratories)
Method: as §1
Master screening plates were prepared using a Biomek FX liquid handling workstation (Beckman) to transfer 1 μL of each compound into individual wells on 96-well storage plates (80 compounds per plate). […] Just prior to use, plates were brought to room temperature and diluted 300-fold with standard buffer (13.3X=33.3 μM). To monitor the performance of each assay throughout screening and to provide intra-plate normalization reference points, DMSO negative controls and known mitochondrial inhibitor positive controls were included on each Master compound plate.
as §3
To assess the effects of a compound on ROS production from the flavin binding site of complex I (IF), Start Solution containing 5 mM glutamate, 5 mM malate and 4 μM rotenone was distributed into standard 96-well transfer plates. A Biomek FX workstation was programmed to dispense solutions into black 96-well assay plates. Solutions were dispensed to all assay plates in the following order: ROS Detection solution described in Example 3, Mitochondria solution described in Example 1 to a final concentration of 0.3 mg/ml, and Compound dilutions described in Example 2. Duplicate assay plates were made and each was initiated by the addition of 3.3X Start solution containing 5 mM glutamate, 5 mM malate and 4 μM rotenone. Plates were incubated in the dark at room temperature for 30-40 minutes before acquiring endpoint fluorescence using a Victor 3V plate reader (Perkin Elmer) equipped with 550/590 nm excitation/emission filters.
The fluorescence values in each well were scaled as the percent change from the intra-plate DMSO controls with the appropriate inhibitor positive controls defined as −100%. Following initial scaling, intra-plate normalized values were subjected to Tukey's two-way median polish to remove row and column dependent positional effects (Malo, N. et al. (2006) Statistical practice in high-throughput screening data analysis. Nat. Biotechnol. 24(2): 167-75).

[4] = test system: mitochondrial membrane potential (ΔΨm); test: Membrane potential (ΔΨm) counterscreen with TMRM; conditions: malate, nigericin
[5] = biological target: T3, outer ubiquinone binding site of complex III (IIIQO) (Rattus norvegicus, UniProt P00159+P20788); test: High-throughput screen: ROS production from outer ubiquinone binding site of complex III (IIIQO); type: biochemical
T3 construct: freshly isolated muscle mitochondria were assayed; from tissue; host or cells: rat skeletal muscle mitochondria (Wistar, Harlan Laboratories)
Method: as §1, §2, §3
To assess the effects of a compound on ROS production from the outer ubiquinone binding site of complex III (IIIQO), Start Solution containing 5 mM succinate, 4 μM rotenone and 2.5 μM antimycin A was distributed into standard 96-well transfer plates. A Biomek FX workstation was programmed to dispense solutions into black 96-well assay plates. Solutions were dispensed to all assay plates in the following order: ROS Detection solution described in Example 3, Mitochondria solution described in Example 1 to a final concentration of 0.1 mg/ml, and Compound dilutions described in Example 2. Duplicate assay plates were made and each was initiated by the addition of 3.3X Start solution containing 5 mM succinate, 4 μM rotenone and 2.5 μM antimycin A. Plates were incubated in the dark at room temperature for 30-40 minutes before acquiring endpoint fluorescence using a Victor 3V plate reader (Perkin Elmer) equipped with 550/590 nm excitation/emission filters.
The fluorescence values in each well were scaled as the percent change from the intra-plate DMSO controls with the appropriate inhibitor positive controls defined as −100%. Following initial scaling, intra-plate normalized values were subjected to Tukey's two-way median polish to remove row and column dependent positional effects (Malo et al., 2006).

[6] = biological target: T4, succinate dehydrogenase/complex II (SDH) (Rattus norvegicus, UniProt P21913+Q641Z9+Q6PCT8+Q920L2); test: High-throughput screen: ROS production from succinate dehydrogenase/complex II (SDH); type: biochemical; conditions: for inhibition at 2.5 µM / SDH: percent change in ROS from DMSO controls
T4 construct: freshly isolated muscle mitochondria were assayed; from tissue; host or cells: rat skeletal muscle mitochondria (Wistar, Harlan Laboratories)

[7] = Table 3, 5 mM glutamate, 5 mM malate, 4 μM rotenone, compounds 2.5 μM, percent change from DMSO, positive control −100%, read-out: % Reduction in ROS production (IF)
[8] = Table 7, percent change in ROS from DMSO controls, read-out: IF
[9] = Table 8, percent change in ROS from DMSO controls
[10] = Table 9, percent change in ROS from DMSO controls
[11] = Table 7, percent change in ROS from DMSO controls, read-out: IIIQO
[12] = Table 9, percent change in ROS from DMSO controls, read-out: IIIQo
[13] = Table 7, percent change in ROS from DMSO controls

T4 sequence (Q920L2 35-656): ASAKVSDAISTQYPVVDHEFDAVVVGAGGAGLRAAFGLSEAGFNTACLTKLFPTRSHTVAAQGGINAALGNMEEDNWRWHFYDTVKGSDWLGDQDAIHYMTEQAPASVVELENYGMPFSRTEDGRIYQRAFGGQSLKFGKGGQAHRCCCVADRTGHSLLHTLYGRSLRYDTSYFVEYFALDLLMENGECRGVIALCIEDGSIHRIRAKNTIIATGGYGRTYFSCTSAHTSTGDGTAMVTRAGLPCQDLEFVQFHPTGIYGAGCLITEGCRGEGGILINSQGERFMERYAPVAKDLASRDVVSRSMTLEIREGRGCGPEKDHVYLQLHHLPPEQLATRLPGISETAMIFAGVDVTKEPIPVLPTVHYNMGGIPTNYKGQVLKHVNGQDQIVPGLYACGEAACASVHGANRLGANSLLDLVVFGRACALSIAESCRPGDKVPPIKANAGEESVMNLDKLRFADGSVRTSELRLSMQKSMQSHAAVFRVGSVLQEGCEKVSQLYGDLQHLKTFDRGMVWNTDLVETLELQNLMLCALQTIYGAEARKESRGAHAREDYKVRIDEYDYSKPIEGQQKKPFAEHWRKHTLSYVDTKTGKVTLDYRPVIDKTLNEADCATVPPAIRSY
T4 sequence (P21913 31-282): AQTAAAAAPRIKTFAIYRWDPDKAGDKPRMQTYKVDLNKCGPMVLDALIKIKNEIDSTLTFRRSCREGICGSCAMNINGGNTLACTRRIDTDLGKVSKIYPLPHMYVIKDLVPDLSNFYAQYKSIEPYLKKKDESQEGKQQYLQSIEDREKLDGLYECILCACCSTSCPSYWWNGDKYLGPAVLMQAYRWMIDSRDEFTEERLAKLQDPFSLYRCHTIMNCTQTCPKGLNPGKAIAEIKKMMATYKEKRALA
T4 sequence (Q641Z9 30-169 limits assumed): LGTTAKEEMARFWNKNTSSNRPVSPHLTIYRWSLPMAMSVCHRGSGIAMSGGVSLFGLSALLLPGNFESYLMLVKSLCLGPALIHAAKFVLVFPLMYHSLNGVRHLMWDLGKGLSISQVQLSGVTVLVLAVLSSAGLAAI
T4 sequence (Q6PCT8 57-159): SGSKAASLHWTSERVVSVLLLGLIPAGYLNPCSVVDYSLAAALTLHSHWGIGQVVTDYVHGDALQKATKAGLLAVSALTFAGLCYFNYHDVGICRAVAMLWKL
T2 sequence (Q5XIH3 21-464 limits assumed, one chain of several): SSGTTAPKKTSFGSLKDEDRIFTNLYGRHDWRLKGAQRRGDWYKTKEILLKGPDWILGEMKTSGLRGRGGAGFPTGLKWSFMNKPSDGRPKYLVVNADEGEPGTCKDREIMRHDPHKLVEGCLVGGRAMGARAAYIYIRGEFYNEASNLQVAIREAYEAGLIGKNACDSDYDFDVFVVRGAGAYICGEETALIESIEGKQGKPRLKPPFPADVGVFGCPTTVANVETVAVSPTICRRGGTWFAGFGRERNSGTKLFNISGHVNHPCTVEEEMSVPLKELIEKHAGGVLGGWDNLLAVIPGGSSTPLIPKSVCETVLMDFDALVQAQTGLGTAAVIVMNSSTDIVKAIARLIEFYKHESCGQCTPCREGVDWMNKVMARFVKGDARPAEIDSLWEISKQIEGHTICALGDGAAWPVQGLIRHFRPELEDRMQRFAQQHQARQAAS

SMILES	inhibition ([1]; Table 7) [%]	GPDH ([1]; Table 8)	GPDH ([1]; Table 9)	IQ ([2]; Table 7)	IQ ([2]; Table 8)	IQ ([2]; Table 9)	inhibition at 2.5 µM [3, 8] [%]	IF [3, 9]	IF [3, 10]	ΔΨm ([4]; Table 8, glutamate)	ΔΨm ([4]; Table 9, glutamate)	inhibition at 2.5 µM [5, 11] [%]	IIIQO [5, 9]	inhibition at 2.5 µM [5, 12] [%]	inhibition at 2.5 µM ([6]; Table 7) [%]	SDH ([6]; Table 8)	SDH ([6]; Table 9)	other results
CN(C)CCN(Cc1ccccc1)Cc1ccc(C(F)(F)F)cc1 [Compound 29]	2.4	−2.4	−2.4	−2.1	−2.1	−2.1	18.1	−18.1	−18.1	−0.6	−0.6	3.2	−3.2	3.2	0.1	−0.1	−0.1	effect on IQ ROS with subsaturating substrate (site IQ): strong effects on IQ ROS with subsaturating substrate; also recorded: stronger off-target effects on IQ ROS when driven by low concentration succinate; inhibition at 2.5 µM [3, 7]: 18.1%
CC(=O)Nc1ccc(S(=O)(=O)Nc2cccc(C)c2)cc1 [Compound 10]	4.3	−4.3	−4.3	−24.1	−24.1	−24.1	-3.3	3.3	3.3	−0.2	−0.2	2.8	−2.8	2.8	-1	1.0	1.0	% Reduction in ROS production (IQ) [2]: −24.1%
O=C(Nc1ccccc1[N+](=O)[O-])c1cccc(S(=O)(=O)Nc2ccccc2)c1 [Compound 73]		−2.4	−2.4	−4.6	−4.6	−4.6		−0.7	−0.7	−0.2	−0.2		−1.3			−26.9	−26.9	GPDH ([1]; Table 7): −2.4; IF [3, 13]: −0.7; IIIQO [5, 13]: −1.3; IIIQO [5, 10]: −1.3; % Reduction in ROS Production (SDH) ([6]; Table 5, 15 μM palmitoyl carnitine, 2.5 μM antimycin A, 2 μM myxothiazol, compounds 2.5 μM, percent change from DMSO): −26.9%; SDH ([6]; Table 7): −26.9
O=C(O)/C=C/C(=O)Nc1ccc(/C=C/c2ccccc2)cc1 [Compound 49]	12.7	−12.7	−12.7	1.7	1.7	1.7	-1	1.0	1.0	−0.3	−0.3	-10	10.0	-10	1	−1.0	−1.0	inhibition at 2.5 µM ([1]; Table 6, 25 mM glycerol phosphate, rotenone, antimycin A, malonate, myxothiazol, compounds 2.5 μM, scaled to IQ positive controls, read-out: % Reduction in ROS Production (GPDH)): 12.7%
c1cc2c3c(ccc(CSCCc4ccncc4)c3c1)CC2 [Compound 36]	4.9	−4.9	−4.9	3.7	3.7	3.7	-0.6	0.6	0.6	0.0	0.0	33.6	−33.6	33.6	1.1	−1.1	−1.1	inhibition at 2.5 µM ([5]; Table 4, 5 mM succinate, 4 μM rotenone, 2.5 μM antimycin A, compounds 2.5 μM, percent change from DMSO, read-out: % Reduction in ROS production (IIIQO)): 33.6%
O=C(Nc1ccccc1C(=O)O)c1ccccc1 [Compound 18]	0.6	−0.6	−0.6	−1.0	−1.0	−1.0	25.8	−25.8	−25.8	−0.7	−0.7	-5.4	5.4	-5.4	0.3	−0.3	−0.3	inhibition at 2.5 µM [3, 7]: 25.8%
O=[N+]([O-])c1ccc(Oc2ccc(S(=O)(=O)Nc3ccc4c(c3)OCCO4)cc2)cc1 [Compound 85]		−3.3	−3.3	−50.6	−50.6	−50.6		0.5	0.5	−0.9	−0.9		−0.8			3.6	3.6	GPDH ([1]; Table 7): −3.3; % Reduction in ROS production (IQ) [2]: −50.6%; IF [3, 13]: 0.5; IIIQO [5, 13]: −0.8; IIIQO [5, 10]: −0.8; SDH ([6]; Table 7): 3.6
